Measured values published in ChEMBL document CHEMBL4665729, “The SARS-CoV-2 main protease as drug target” (Bioorg Med Chem Lett, 2020).

Legend:
[1] = system: Severe acute respiratory syndrome coronavirus 2; assay: Inhibition of SARS-CoV-2 main protease expressed in expressed in BL21(DE3) Escherichia Coli […] by measuring ratio of K2/Ki by FRET assay
[2] = Inhibition of SARS-CoV-2 main protease expressed in expressed in BL21(DE3) Escherichia Coli […] by FRET assay; set-up: species or system Severe acute respiratory syndrome coronavirus 2

| SMILES | Ratio [1] [M⁻¹ s⁻¹] | EC50 [2] [nM] | Ki [2] [nM] |
| --- | --- | --- | --- |
| CC(C)C[C@H](NC(=O)OCc1ccccc1)C(=O)N[C@@H](CC1CCNC1=O)C(O)S(=O)(=O)O (stereo partly drawn) | 40800 | – | – |
| CC(C)(C)NC(=O)N[C@H](C(=O)N1C[C@H]2[C@@H]([C@H]1C(=O)NC(CC1CCC1)C(=O)C(N)=O)C2(C)C)C(C)(C)C (stereo partly drawn) [BOCEPREVIR] | – | 1310 | 1180 |
